# Data taken from ChEMBL document CHEMBL1135237, “Synthesis and antibacterial activity of linezolid analogues” (2002).
# Key:
# Type in all cases: functional
# Staphylococcus aureus [1] = assay: Compound was evaluated for minimum inhibitory concentration against Staphylococcus aureus 966 strain
# Streptococcus pneumoniae [2] = assay: Compound was evaluated for minimum inhibitory concentration against Streptococcus pneumoniae 9798 strain
# Staphylococcus aureus [3] = assay: Compound was evaluated for minimum inhibitory concentration against Staphylococcus aureus 9616 strain
# Streptococcus sp. [4] = assay: Compound was evaluated for minimum inhibitory concentration against Streptococcus A 29 strain
# Streptococcus sp. [5] = assay: Compound was evaluated for minimum inhibitory concentration against Streptococcus A 44 strain
# [6] = tested on: Staphylococcus epidermidis; assay: Compound was evaluated for minimum inhibitory concentration against Staphylococcus epidermidis 9753 strain
# Streptococcus pneumoniae [7] = assay: Compound was evaluated for minimum inhibitory concentration against Streptococcus pneumoniae 9757 strain
# [8] = tested on: Staphylococcus epidermidis; assay: Compound was evaluated for minimum inhibitory concentration against Staphylococcus epidermidis 975 strain
# Staphylococcus aureus [9] = assay: Compound was evaluated for minimum inhibitory concentration against Staphylococcus aureus 975 strain
# Staphylococcus aureus [10] = assay: Compound was evaluated for minimum inhibitory concentration against Staphylococcus aureus 9776 strain
# Streptococcus pyogenes [11] = assay: Compound was evaluated for minimum inhibitory concentration against Streptococcus pyogenes 102 strain
# Staphylococcus aureus [12] = assay: Compound was evaluated for minimum inhibitory concentration against Staphylococcus aureus 9721 strain
# Streptococcus pneumoniae [13] = assay: Compound was evaluated for minimum inhibitory concentration against Streptococcus pneumoniae 9753 strain
# Enterococcus faecalis [14] = assay: Compound was evaluated for minimum inhibitory concentration against Enterococcus faecalis 50
# Streptococcus pyogenes [15] = assay: Compound was evaluated for minimum inhibitory concentration against Streptococcus pyogenes 114 strain
# [16] = tested on: Staphylococcus epidermidis; assay: Compound was evaluated for minimum inhibitory concentration against Staphylococcus epidermidis 9759 strain
# Enterococcus faecalis [17] = assay: Compound was evaluated for minimum inhibitory concentration against Enterococcus faecalis 50 strain
# Enterococcus faecalis [18] = assay: Compound was evaluated for minimum inhibitory concentration against Enterococcus faecalis 68
Compound,MIC (Staphylococcus aureus [1]) [µg/mL],MIC (Streptococcus pneumoniae [2]) [µg/mL],MIC (Staphylococcus aureus [3]) [µg/mL],MIC (Streptococcus sp. [4]) [µg/mL],MIC (Streptococcus sp. [5]) [µg/mL],MIC [6] [µg/mL],MIC (Streptococcus pneumoniae [7]) [µg/mL],MIC [8] [µg/mL],MIC (Staphylococcus aureus [9]) [µg/mL],MIC (Staphylococcus aureus [10]) [µg/mL],MIC (Streptococcus pyogenes [11]) [µg/mL],MIC (Staphylococcus aureus [12]) [µg/mL],MIC (Streptococcus pneumoniae [13]) [µg/mL],MIC (Enterococcus faecalis [14]) [µg/mL],MIC (Streptococcus pyogenes [15]) [µg/mL],MIC [16] [µg/mL],MIC (Enterococcus faecalis [17]) [µg/mL],MIC (Enterococcus faecalis [18]) [µg/mL]
COc1ccc(N2CCN(c3ccc(N4C[C@H](CNC(C)=O)OC4=O)cc3F)CC2)cc1,2,1,1,1,1,1,1,1,1,1,1,1,1,1,2,1,–,–
CC(=O)NC[C@H]1CN(c2ccc(N3CCOCC3)c(F)c2)C(=O)O1 [LINEZOLID],0.5,–,1,0.25,0.5,0.25,–,0.5,0.25,0.5,0.5,0.5,–,–,0.5,0.5,0.5,–
CC(=O)NC[C@H]1CN(c2ccc(N3CCN(c4ccccc4)CC3)c(F)c2)C(=O)O1,2,1,1,0.5,2,0.5,0.25,1,1,1,1,1,0.5,1,1,1,–,2
CC(=O)NC[C@H]1CN(c2ccc(N3CCN(c4ccc(F)cc4)CC3)c(F)c2)C(=O)O1,1,1,2,1,1,0.5,1,1,0.5,1,1,1,1,1,2,1,–,4
CC(=O)NC[C@H]1CN(c2ccc(N3CCN(C(c4ccccc4)c4ccccc4)CC3)c(F)c2)C(=O)O1,8,8,8,4,32,4,4,8,4,8,32,16,4,8,16,16,–,32
